Laboratory results reported in patent publication US20190233884A1 (University of Southern California, priority 2016, published 2019).

Test system: patients with refractory metastatic colorectal cancer (mCRC)
Experiment: PFS, OS and disease control in the training (evaluation) cohort of refractory mCRC patients receiving TAS-102 (n=52, Japan), by baseline characteristics, SNP genotype and toxicity
Format: in vivo, human
Details: evaluation cohort; for HR OS (95% CI) / HR PFS (95% CI): XRCC3 rs861539 G/A vs G/G (Ref.)
Experimental: All patients underwent the treatment in salvage-line setting. […]
Genomic DNA was extracted from peripheral whole blood in patients of all cohorts using the QIAmp Kit (Qiagen, Valencia, Calif., USA) according to the manufacturer's protocol (www.qiagen.com). The candidate SNPs were genotyped using PCR-based direct DNA sequence analysis by ABI 3100A Capillary Genetic Analyzer and Sequencing Scanner v1.0 (Applied Biosystems). Amplification of extracted DNA was carried out using both forward and reverse primers for each gene polymorphism as shown in Table 1. […] The investigators analyzing SNPs were blinded to the clinical data of the study patients.
The primary endpoint in this study was progression-free survival (PFS), and the secondary endpoints were overall survival (OS) and disease control rate (DCR). PFS was calculated from the date of starting treatment to the first observation of disease progression or death from any cause. If a patient had no disease progression or death, PFS was censored at the date of last follow up. OS was calculated from the date of starting treatment until the date of death from any cause or the date of the last follow-up, at which point OS was censored. The disease control rate (DCR) was defined as the proportion of patients who achieved a stable disease (SD) or […] according to RECISTv1.1. Chi-square test was used to examine the difference in baseline patient characteristics among the three cohorts. Allelic distribution of all SNPs by ethnicity for deviation from Hardy-Weinberg equilibrium and the allelic frequencies of SNPs were tested using the Chi-square tests with one degree of freedom. The associations between candidate SNPs and disease control, and toxicities were examined using contingency tables and Fisher's exact test. The associations of SNPs with PFS and OS were analysed using Kaplan-Meier curves and the log-rank test. Because the true mode of inheritance of candidate SNPs was not established yet, a codominant or dominant genetic model if appropriate was considered.
All patients underwent the treatment in salvage-line setting. […] In all patients, adverse events were graded according to the Common Terminology Criteria for Adverse Events, version 4.0. […]
Genomic DNA was extracted from peripheral whole blood in patients of all cohorts using the QIAmp Kit (Qiagen, Valencia, Calif., USA) according to the manufacturer's protocol (www.qiagen.com). The candidate SNPs were tested using PCR-based direct DNA sequence analysis by ABI 3100A Capillary Genetic Analyzer and Sequencing Scanner v1.0 (Applied Biosystems). […] The investigators analyzing SNPs were blinded to the clinical data.
The primary endpoint in this study was progression-free survival (PFS), and the secondary endpoints were overall survival (OS) and disease control rate (DCR).

[1] = Adjuvant history No vs Yes, univariate
[2] = Histology Mod-por vs well, univariate
[3] = KRAS Mutant vs Wild type, univariate
[4] = LN metastasis No vs Yes, univariate
[5] = Liver metastasis No vs Yes, univariate
[6] = Lung metastasis No vs Yes, univariate
[7] = Number of metastases >2 vs ≤2, univariate

Trifluridine/tipiracil [TAS-102]
PD, patients n (%) (Pin1 rs2233679 T/T): 4 (57%) | Disease Control Rate SD, patients n (%) (RAD51 rs1801320 G/C): 3 (43%) | PD, patients n (%) (RAD51 rs1801320 G/C): 4 (57%) | Disease Control Rate SD, patients n (%) (RAD51 rs1801320 G/G): 12 (31%) | PD, patients n (%) (RAD51 rs1801320 G/G): 27 (69%) | Disease Control CR/PR/SD, patients n (%) (XRCC3 rs861539 G/A): 7 (44%) | Median PFS (95% CI) (XRCC3 rs861539 G/A): 3.8 (1.6, 6.6) months | OS (XRCC3 rs861539 G/A): 15.6 months | PD, patients n (%) (XRCC3 rs861539 G/A): 9 (56%) | HR OS (95% CI) (multivariable): 0.31 (0.09, 1.03) | HR PFS (95% CI) (multivariable): 0.52 (0.24, 1.11) | HR OS (95% CI) (univariate): 0.25 (0.08, 0.79) | HR PFS (95% CI) (univariate): 0.44 (0.21, 0.92) | Disease Control CR/PR/SD, patients n (%) (XRCC3 rs861539 G/G): 8 (27%) | Median OS (95% CI) (XRCC3 rs861539 G/G): 6.3 (4.9, 12.4+) months | Median PFS (95% CI) (XRCC3 rs861539 G/G): 2.3 (1.9, 3.3) months | OS (XRCC3 rs861539 G/G): 6.3 months | PD, patients n (%) (XRCC3 rs861539 G/G): 22 (73%) | Disease Control Rate SD, patients n (%) (p21 rs1059234 Any C): 10 (29%) | PD, patients n (%) (p21 rs1059234 Any C): 25 (71%) | Disease Control Rate SD, patients n (%) (p21 rs1059234 C/C): 4 (31%) | PD, patients n (%) (p21 rs1059234 C/C): 9 (69%) | Disease Control Rate SD, patients n (%) (p21 rs1059234 T/C): 6 (27%) | PD, patients n (%) (p21 rs1059234 T/C): 16 (73%) | Disease Control Rate SD, patients n (%) (p21 rs1059234 T/T): 5 (45%) | PD, patients n (%) (p21 rs1059234 T/T): 6 (55%) | Disease Control Rate SD, patients n (%) (p21 rs1801270 A/A): 4 (31%) | PD, patients n (%) (p21 rs1801270 A/A): 9 (69%) | Disease Control Rate SD, patients n (%) (p21 rs1801270 A/C): 6 (29%) | PD, patients n (%) (p21 rs1801270 A/C): 15 (71%) | Disease Control Rate SD, patients n (%) (p21 rs1801270 Any C): 11 (33%) | PD, patients n (%) (p21 rs1801270 Any C): 22 (67%) | Disease Control Rate SD, patients n (%) (p21 rs1801270 C/C): 5 (42%) | PD, patients n (%) (p21 rs1801270 C/C): 7 (58%) | Disease Control Rate SD, patients n (%) (p53 rs1042522 Any G): 9 (35%) | PD, patients n (%) (p53 rs1042522 Any G): 17 (65%) | Disease Control Rate SD, patients n (%) (p53 rs1042522 C/C): 6 (30%) | PD, patients n (%) (p53 rs1042522 C/C): 14 (70%) | Disease Control Rate SD, patients n (%) (p53 rs1042522 G/G): 2 (33%) | PD, patients n (%) (p53 rs1042522 G/G): 4 (67%) | HR for OS (ATM rs609429, multivariable adjusted for liver metastases and adjuvant history): 0.24 | HR for OS (ATM rs609429 any G vs C/C, univariate): 0.37 | Overall Survival Median, months (Adjuvant history No): 6.3 months | Progression-Free Survival Median, months (Adjuvant history No): 2.1 months | Overall Survival HR [1]: 2.44 | Progression-Free Survival HR [1]: 1.90 | Overall Survival Median, months (Adjuvant history Yes): 8.7 months | Progression-Free Survival Median, months (Adjuvant history Yes): 3.7 months | Overall Survival Median, months (Age <61): 8.1 months | Progression-Free Survival Median, months (Age <61): 2.2 months | Overall Survival Median, months (Age ≥61): 6.3 months | Progression-Free Survival Median, months (Age ≥61): 3.0 months | Overall Survival HR (Age ≥61 vs <61, univariate): 1.30 | Progression-Free Survival HR (Age ≥61 vs <61, univariate): 0.81 | PFS (CHEK2 rs2267130 any C allele): 3.4 months | HR for PFS (CHEK2 rs2267130 any C vs T/T, univariate): 0.48 | Overall Survival Median, months (Histology Mod-por): 8.7 months | Progression-Free Survival Median, months (Histology Mod-por): 3.0 months | Overall Survival HR [2]: 0.52 | Progression-Free Survival HR [2]: 0.94 | Overall Survival Median, months (Histology well): 6.3 months | Progression-Free Survival Median, months (Histology well): 2.1 months | Overall Survival Median, months (KRAS Mutant): 8.3 months | Progression-Free Survival Median, months (KRAS Mutant): 3.3 months | Overall Survival HR [3]: 0.42 | Progression-Free Survival HR [3]: 0.51 | Overall Survival Median, months (KRAS Wild type): 7.2 months | Progression-Free Survival Median, months (KRAS Wild type): 2.1 months | Overall Survival Median, months (LN metastasis No): 7.2 months | Progression-Free Survival Median, months (LN metastasis No): 2.5 months | Overall Survival HR [4]: 1.06 | Progression-Free Survival HR [4]: 1.27 | Overall Survival Median, months (LN metastasis Yes): 8.3 months | Progression-Free Survival Median, months (LN metastasis Yes): 3.0 months | Overall Survival Median, months (Liver metastasis No): 8.7 months | Progression-Free Survival Median, months (Liver metastasis No): 4.2 months | Overall Survival HR [5]: 0.57 | Progression-Free Survival HR [5]: 0.43 | Overall Survival Median, months (Liver metastasis Yes): 7.2 months | Progression-Free Survival Median, months (Liver metastasis Yes): 2.3 months | Overall Survival Median, months (Lung metastasis No): 6.3 months | Progression-Free Survival Median, months (Lung metastasis No): 2.5 months | Overall Survival HR [6]: 1.44 | Progression-Free Survival HR [6]: 1.19 | Overall Survival Median, months (Lung metastasis Yes): 8.3 months | Progression-Free Survival Median, months (Lung metastasis Yes): 2.9 months | Overall Survival Median, months (Number of metastases >2): 8.1 months | Progression-Free Survival Median, months (Number of metastases >2): 2.9 months | Overall Survival HR [7]: 1.63 | Progression-Free Survival HR [7]: 1.22
